In PubChem BioAssay AID1259407 (Chemical Carcinogenesis Research Information System (CCRIS), 2018) one finds mutagenic call data, which are given here for six molecules.

The subject of this data set is CCRIS mutagenicity, Ames/micronucleus/aberration tests. As to the kind of experiment: CCRIS mutagenicity studies.
The mark [1] stands for this setting: Test System: AMES SALMONELLA TYPHIMURIUM, Strain/Indicator: TA97, Metabolic Activation: NONE, Method: PREINCUBATION
Where [2] appears, read: Test System: AMES SALMONELLA TYPHIMURIUM, Strain/Indicator: TA98, Metabolic Activation: HAMSTER, LIVER, S-9, AROCLOR 1254 (10%), Method: PREINCUBATION
Where [3] appears, read: Test System: AMES SALMONELLA TYPHIMURIUM, Strain/Indicator: TA98, Metabolic Activation: NONE, Method: PREINCUBATION
[4] abbreviates: Test System: AMES SALMONELLA TYPHIMURIUM, Strain/Indicator: TA98, Metabolic Activation: RAT, LIVER, S-9, AROCLOR 1254 (10%), Method: PREINCUBATION
Where [5] appears, read: Test System: AMES SALMONELLA TYPHIMURIUM, Strain/Indicator: TA100, Metabolic Activation: NONE, Method: PREINCUBATION
Setting [6] is: Test System: AMES SALMONELLA TYPHIMURIUM, Strain/Indicator: TA1535, Metabolic Activation: NONE, Method: PREINCUBATION

Each structure is given as a SMILES string. Activity calls are given as the source filed them. The rule behind the calls is not given here.

On to `CCOC(/C=C(\C)CCC=C(C)C)OCC`, for which the mutagenic call was “inactive; negative” (Test System: AMES SALMONELLA TYPHIMURIUM, Strain/Indicator: TA97, Metabolic Activation: HAMSTER, LIVER, S-9, AROCLOR 1254 (10%), Method: PREINCUBATION); “inactive; negative” under setting [1]; “inactive; negative” (Test System: AMES SALMONELLA TYPHIMURIUM, Strain/Indicator: TA97, Metabolic Activation: RAT, LIVER, S-9, AROCLOR 1254 (10%), Method: PREINCUBATION); “inactive; negative” under setting [2]; “inactive; negative” under setting [3]; “inactive; negative” under setting [4]. Further, the mutagenic call (Test System: AMES SALMONELLA TYPHIMURIUM, Strain/Indicator: TA100, Metabolic Activation: HAMSTER, LIVER, S-9, AROCLOR 1254 (10%), Method: PREINCUBATION) is “inactive; negative”; the mutagenic call under setting [5] is “inactive; negative”; the mutagenic call (Test System: AMES SALMONELLA TYPHIMURIUM, Strain/Indicator: TA100, Metabolic Activation: RAT, LIVER, S-9, AROCLOR 1254 (10%), Method: PREINCUBATION) is “inactive; negative”; the mutagenic call (Test System: AMES SALMONELLA TYPHIMURIUM, Strain/Indicator: TA1535, Metabolic Activation: HAMSTER, LIVER, S-9, AROCLOR 1254 (10%), Method: PREINCUBATION) was “active; positive”; the mutagenic call under setting [6] is “inactive; negative”; the mutagenic call (Test System: AMES SALMONELLA TYPHIMURIUM, Strain/Indicator: TA1535, Metabolic Activation: RAT, LIVER, S-9, AROCLOR 1254 (10%), Method: PREINCUBATION) was “active; positive”.
For the molecule `O=S=O`, the mutagenic call (End Point: IN VIVO CHROMOSOMAL ABERRATIONS, Test System: BONE MARROW CELLS, Species: MOUSE, Strain/Sex: KUNMING/MALE, FEMALE, Route: INHALATION) was “active; positive; exposure up to 5 d not effective”.
With `O=C(CCc1ccc(O)cc1)c1c(O)cc(O)cc1O`, the mutagenic call is, setting by setting: (Test System: AMES SALMONELLA TYPHIMURIUM, Strain/Indicator: TA98, Metabolic Activation: HAMSTER, LIVER, S-9, AROCLOR 1254, Method: STANDARD PLATE) “inactive; negative”; (Test System: AMES SALMONELLA TYPHIMURIUM, Strain/Indicator: TA98, Metabolic Activation: NONE, Method: STANDARD PLATE) “inactive; negative”; (Test System: AMES SALMONELLA TYPHIMURIUM, Strain/Indicator: TA98, Metabolic Activation: RAT, LIVER, S-9, AROCLOR 1254, Method: STANDARD PLATE) “inactive; negative”; (Test System: AMES SALMONELLA TYPHIMURIUM, Strain/Indicator: TA100, Metabolic Activation: HAMSTER, LIVER, S-9, AROCLOR 1254, Method: STANDARD PLATE) “inactive; negative”; (Test System: AMES SALMONELLA TYPHIMURIUM, Strain/Indicator: TA100, Metabolic Activation: NONE, Method: STANDARD PLATE) “inactive; negative”; (Test System: AMES SALMONELLA TYPHIMURIUM, Strain/Indicator: TA100, Metabolic Activation: RAT, LIVER, S-9, AROCLOR 1254, Method: STANDARD PLATE) “inactive; negative”. The mutagenic call (Test System: AMES SALMONELLA TYPHIMURIUM, Strain/Indicator: TA1535, Metabolic Activation: HAMSTER, LIVER, S-9, AROCLOR 1254, Method: STANDARD PLATE) was “inactive; negative”; the mutagenic call (Test System: AMES SALMONELLA TYPHIMURIUM, Strain/Indicator: TA1535, Metabolic Activation: NONE, Method: STANDARD PLATE) was “inactive; negative”; the mutagenic call (Test System: AMES SALMONELLA TYPHIMURIUM, Strain/Indicator: TA1535, Metabolic Activation: RAT, LIVER, S-9, AROCLOR 1254, Method: STANDARD PLATE) is “inactive; negative”; the mutagenic call (Test System: AMES SALMONELLA TYPHIMURIUM, Strain/Indicator: TA1537, Metabolic Activation: HAMSTER, LIVER, S-9, AROCLOR 1254, Method: STANDARD PLATE) was “inactive; negative”; the mutagenic call (Test System: AMES SALMONELLA TYPHIMURIUM, Strain/Indicator: TA1537, Metabolic Activation: NONE, Method: STANDARD PLATE) is “inactive; negative”; the mutagenic call (Test System: AMES SALMONELLA TYPHIMURIUM, Strain/Indicator: TA1537, Metabolic Activation: RAT, LIVER, S-9, AROCLOR 1254, Method: STANDARD PLATE) was “inactive; negative”. Also, the mutagenic call (Test System: AMES SALMONELLA TYPHIMURIUM, Strain/Indicator: TA1538, Metabolic Activation: HAMSTER, LIVER, S-9, AROCLOR 1254, Method: STANDARD PLATE) was “inactive; negative”; the mutagenic call (Test System: AMES SALMONELLA TYPHIMURIUM, Strain/Indicator: TA1538, Metabolic Activation: NONE, Method: STANDARD PLATE) is “inactive; negative”; the mutagenic call (Test System: AMES SALMONELLA TYPHIMURIUM, Strain/Indicator: TA1538, Metabolic Activation: RAT, LIVER, S-9, AROCLOR 1254, Method: STANDARD PLATE) was “inactive; negative”.
As for `CC[C@@]1(O)C[C@H](O[C@H]2C[C@H](N(C)C)[C@H](O)[C@H](C)O2)c2c(cc3c(c2O)C(=O)c2c(O)ccc(O)c2C3=O)[C@H]1C(=O)OC`, the mutagenic call by setting is: (Test System: AMES SALMONELLA TYPHIMURIUM, Strain/Indicator: TA102, Metabolic Activation: NONE, Method: STANDARD PLATE) “active; positive”; (Test System: AMES SALMONELLA TYPHIMURIUM, Strain/Indicator: TA104, Metabolic Activation: NONE, Method: STANDARD PLATE) “active; positive”; (Test System: AMES SALMONELLA TYPHIMURIUM, Strain/Indicator: TA1537, Metabolic Activation: NONE) “active; positive”; (Test System: AMES SALMONELLA TYPHIMURIUM, Strain/Indicator: TA1537, Metabolic Activation: RAT, LIVER, S-9, AROCLOR 1254) “active; positive”.
As to `C=C(C)C(=O)OCCCCCCCC`, the mutagenic call reads like this: (Test System: AMES SALMONELLA TYPHIMURIUM, Strain/Indicator: TA97, Metabolic Activation: HAMSTER, LIVER, S-9, AROCLOR 1254 (10 OR 30%), Method: PREINCUBATION) “inactive; negative”; under setting [1], “inactive; negative”; (Test System: AMES SALMONELLA TYPHIMURIUM, Strain/Indicator: TA97, Metabolic Activation: RAT, LIVER, S-9, AROCLOR 1254 (10 OR 30%), Method: PREINCUBATION) “inactive; negative”; under setting [2], “inactive; negative”; (Test System: AMES SALMONELLA TYPHIMURIUM, Strain/Indicator: TA98, Metabolic Activation: HAMSTER, LIVER, S-9, AROCLOR 1254 (30%), Method: PREINCUBATION) “inactive; negative”; under setting [3], “inactive; negative”. Besides, the mutagenic call was “inactive; negative” under setting [4]; “inactive; negative” (Test System: AMES SALMONELLA TYPHIMURIUM, Strain/Indicator: TA98, Metabolic Activation: RAT, LIVER, S-9, AROCLOR 1254 (30%), Method: PREINCUBATION); “inactive; negative” (Test System: AMES SALMONELLA TYPHIMURIUM, Strain/Indicator: TA100, Metabolic Activation: HAMSTER, LIVER, S-9, AROCLOR 1254 (10 OR 30%), Method: PREINCUBATION); “inactive; negative” under setting [5]; “inactive; negative” (Test System: AMES SALMONELLA TYPHIMURIUM, Strain/Indicator: TA100, Metabolic Activation: RAT, LIVER, S-9, AROCLOR 1254 (10 OR 30%), Method: PREINCUBATION); “inactive; negative” (Test System: AMES SALMONELLA TYPHIMURIUM, Strain/Indicator: TA1535, Metabolic Activation: HAMSTER, LIVER, AROCLOR 1254 (10 OR 30%), Method: PREINCUBATION). Further, the mutagenic call is, setting by setting: under setting [6], “inactive; negative”; (Test System: AMES SALMONELLA TYPHIMURIUM, Strain/Indicator: TA1535, Metabolic Activation: RAT, LIVER, S-9, AROCLOR 1254 (10 OR 30%), Method: PREINCUBATION) “inactive; negative”; (Test System: AMES SALMONELLA TYPHIMURIUM, Strain/Indicator: TA1537, Metabolic Activation: HAMSTER, LIVER, S-9, AROCLOR 1254 (10%), Method: PREINCUBATION) “inactive; negative”; (Test System: AMES SALMONELLA TYPHIMURIUM, Strain/Indicator: TA1537, Metabolic Activation: NONE, Method: PREINCUBATION) “inactive; negative”; (Test System: AMES SALMONELLA TYPHIMURIUM, Strain/Indicator: TA1537, Metabolic Activation: RAT, LIVER, S-9, AROCLOR 1254 (10%), Method: PREINCUBATION) “inactive; negative”.
Take `Nc1nc2c(ncn2CCC(CO)CO)c(=O)[nH]1`: under “End Point: IN VITRO CHROMOSOMAL ABERRATIONS, Test System: CHO CELLS (CHO-HSVTK), Metabolic Activation: NONE”, the mutagenic call is “active; positive (pulverized chromosome and condensation defects); concentration chosen”.
